Like-named read-outs stand apart in the source and are kept apart here.
Test system: C. elegans
Test: microbe, parasite or virus in culture
Details: Caenorhabditis elegans
[1] = 0 h, read-out: Percentage of motility inhibition 0 h, Table S2, C. elegans SS assay, 110 μM, 0 h, averages of 4 data points
[2] = 24 h, read-out: Percentage of motility inhibition 24 h, Table S2, C. elegans SS assay, 110 μM, 24 h, averages of 4 data points
[3] = 0 h, read-out: Percentage of motility inhibition 0 h
[4] = 24 h, read-out: Percentage of motility inhibition 24 h

Oc1c(Br)cc(Br)c2cccnc12 [Broxyquinoline]
inhibition at 110 µM [1]: 0%
inhibition at 110 µM [2]: 8%

COC(=O)[C@@]12OC[C@]34[C@H]([C@@H](O)[C@@H]1O)[C@@]1(C)CC(=O)C(O)=C(C)[C@@H]1C[C@H]3OC(=O)[C@H](OC(=O)/C=C(\C)C(C)C)[C@@H]24 [Bruceantin]
inhibition at 110 µM [1]: 24%
inhibition at 110 µM [2]: 69%

COC(=O)[C@@]12OC[C@]34[C@H]([C@@H](O)[C@@H]1O)[C@@]1(C)CC(=O)C(O)=C(C)[C@@H]1C[C@H]3OC(=O)[C@H](OC(=O)CC(C)C)[C@@H]24 [Bruceine A]
inhibition at 110 µM [3]: 24%
inhibition at 110 µM [4]: 49%

C[C@H](CC[C@@H](O)C(C)(C)O)[C@H]1CC[C@@]2(C)[C@@H]3CC=C4[C@@H](CC[C@H](O)C4(C)C)[C@]3(C)C(=O)C[C@]12C [Bryodulcosigenin]
inhibition at 110 µM [1]: 16%
inhibition at 110 µM [2]: 15%

CC(C)(C)[C@H]1CC[C@H](CC2=C(O)C(=O)c3ccccc3C2=O)CC1 [Buparvaquone]
inhibition at 110 µM [1]: 6%
inhibition at 110 µM [2]: 12%

CO[C@H]1C(=O)[C@]2(C)[C@@H](OC)C[C@H]3OC[C@@]3(OC(C)=O)[C@H]2[C@H](OC(=O)c2ccccc2)[C@]2(O)C[C@H](OC(=O)[C@H](O)[C@@H](NC(=O)OC(C)(C)C)c3ccccc3)C(C)=C1C2(C)C [Cabazitaxel]
inhibition at 110 µM [1]: 3%
inhibition at 110 µM [2]: 9%

C[C@H]1CO[C@@H]2Cn3cc(C(=O)NCc4ccc(F)cc4F)c(=O)c(O)c3C(=O)N12 [Cabotegravir]
inhibition at 110 µM [1]: 19%
inhibition at 110 µM [2]: 7%

O=C(O)c1cn(C2CC2)c2cc(N3CCC(O)(COc4ccc(N5C[C@H](CO)OC5=O)cc4F)CC3)c(F)cc2c1=O [Cadazolid]
inhibition at 110 µM [1]: 5%
inhibition at 110 µM [2]: 31%

O=C(O)/C=C/c1ccc(O)c(O)c1 [Caffeic acid]
inhibition at 110 µM [1]: 20%
inhibition at 110 µM [2]: 13%

COc1ccc(-c2coc3cc(O)ccc3c2=O)cc1O [Calycosin]
inhibition at 110 µM [3]: 16%
inhibition at 110 µM [4]: 1%

C[C@@H]1O[C@@H](OC[C@H]2O[C@@H](Oc3c(-c4ccc(O)cc4)oc4cc(O)cc(O)c4c3=O)[C@H](O[C@@H]3O[C@H](CO)[C@H](O)[C@H](O)[C@H]3O)[C@@H](O)[C@@H]2O)[C@H](O)[C@H](O)[C@H]1O [Camelliaside A]
inhibition at 110 µM [1]: 9%
inhibition at 110 µM [2]: 10%

O=c1ccc2nccc3c4ccccc4n1c23 [Canthin‐6‐one]
inhibition at 110 µM [1]: 0%
inhibition at 110 µM [2]: 15%

COc1cc(CNC(=O)CCCC/C=C/C(C)C)ccc1O [Capsaicin]
inhibition at 110 µM [3]: 0%
inhibition at 110 µM [4]: 0%

COC(=O)N/N=C/c1c[n+]([O-])c2ccccc2[n+]1[O-] [Carbadox]
inhibition at 110 µM [1]: 4%
inhibition at 110 µM [2]: 0%

COC(=O)Nc1nc2ccccc2[nH]1 [Carbendazim]
inhibition at 110 µM [1]: 18%
inhibition at 110 µM [2]: 7%

O[C@H]1[C@H](O)[C@@H](O)CN2CC[C@H](O)[C@H]12 [Castanospermine]
inhibition at 110 µM [1]: 0%
inhibition at 110 µM [2]: 0%

COc1ccc(-c2oc3cc(OC)c(OC)c(O)c3c(=O)c2OC)cc1O [Casticin]
inhibition at 110 µM [3]: 9%
inhibition at 110 µM [4]: 0%

OC[C@H]1O[C@@H](O[C@@H]2OC=C[C@H]3[C@H](O)[C@@H]4O[C@]4(CO)[C@@H]23)[C@H](O)[C@@H](O)[C@@H]1O [Catalpol]
inhibition at 110 µM [1]: 0%
inhibition at 110 µM [2]: 16%

C[C@@H]1O[C@@H](O[C@H]2[C@H](O)[C@@H](O)[C@H](OC[C@H]3O[C@@H](OC(=O)[C@]45CCC(C)(C)C[C@H]4C4=CC[C@@H]6[C@@]7(C)CC[C@H](O[C@@H]8OC[C@H](O)[C@H](O)[C@H]8O)[C@@](C)(CO)[C@@H]7CC[C@@]6(C)[C@]4(C)CC5)[C@H](O)[C@@H](O)[C@@H]3O)O[C@@H]2CO)[C@H](O)[C@H](O)[C@H]1O [Cauloside D]
inhibition at 110 µM [1]: 6%
inhibition at 110 µM [2]: 17%

C[C@@H]1CC[C@H]2C(C)(C)[C@H]3C[C@@]12CC[C@@]3(C)O [Cedrol]
inhibition at 110 µM [1]: 8%
inhibition at 110 µM [2]: 13%

C=CC1=C(C(=O)O)N2C(=O)[C@@H](NC(=O)/C(=N\O)c3csc(N)n3)[C@H]2SC1 [Cefdinir]
inhibition at 110 µM [1]: 0%
inhibition at 110 µM [2]: 0%

C=CC1=C(C(=O)O)N2C(=O)[C@@H](NC(=O)/C(=N\OCC(=O)O)c3csc(N)n3)[C@H]2SC1 [Cefixime]
inhibition at 110 µM [1]: 38%
inhibition at 110 µM [2]: 12%

CCN1CCN(C(=O)N[C@@H](C(=O)N[C@@H]2C(=O)N3C(C(=O)O)=C(CSc4nnnn4C)CS[C@H]23)c2ccc(O)cc2)C(=O)C1=O [Cefoperazone]
inhibition at 110 µM [1]: 22%
inhibition at 110 µM [2]: 7%

CC1=C(C(=O)O)N2C(=O)[C@@H](NC(=O)[C@H](N)C3=CCC=CC3)[C@H]2SC1 [Cefradine]
inhibition at 110 µM [1]: 37%
inhibition at 110 µM [2]: 11%

CC(C)(O/N=C(\C(=O)N[C@@H]1C(=O)N2C(C(=O)[O-])=C(C[n+]3ccccc3)CS[C@H]12)c1csc(N)n1)C(=O)O [Ceftazidime]
inhibition at 110 µM [1]: 37%
inhibition at 110 µM [2]: 28%

CC1=C(O)C(=O)C=C2C1=CC=C1[C@@]2(C)CC[C@@]2(C)[C@@H]3C[C@](C)(C(=O)O)CC[C@]3(C)CC[C@]12C [Celastrol]
inhibition at 110 µM [1]: 0%
inhibition at 110 µM [2]: 13%

CC1=C(C(=O)O)N2C(=O)[C@@H](NC(=O)[C@H](N)c3ccccc3)[C@H]2SC1 [Cephalexin]
inhibition at 110 µM [1]: 21%
inhibition at 110 µM [2]: 13%

C/C=C(\C)C(=O)N[C@@H](c1ccccc1)[C@@H](O)C(=O)O[C@H]1C[C@@]2(O)[C@@H](OC(=O)c3ccccc3)[C@@H]3[C@]4(OC(C)=O)CO[C@@H]4C[C@H](O)[C@@]3(C)C(=O)[C@H](OC(C)=O)C(=C1C)C2(C)C [Cephalomannine]
inhibition at 110 µM [1]: 31%
inhibition at 110 µM [2]: 34%

COC1=C[C@]23CCCN2CCc2cc4c(cc2[C@@H]3[C@@H]1O)OCO4 [Cephalotaxine]
inhibition at 110 µM [1]: 0%
inhibition at 110 µM [2]: 0%

CN1Cc2c(ccc3c2OCO3)[C@@H]2[C@H]1c1cc3c(cc1C[C@@H]2O)OCO3 [Chelidonine]
inhibition at 110 µM [1]: 0%
inhibition at 110 µM [2]: 0%

C[C@H](CCC(=O)O)[C@H]1CC[C@H]2[C@@H]3[C@H](O)C[C@@H]4C[C@H](O)CC[C@]4(C)[C@H]3CC[C@]12C [Chenodeoxycholic Acid]
inhibition at 110 µM [1]: 0%
inhibition at 110 µM [2]: 5%

CC1(C)CC[C@]2(C(=O)O[C@@H]3O[C@H](CO)[C@@H](O)[C@H](O)[C@H]3O)CC[C@]3(C)C(=CC[C@@H]4[C@@]5(C)CC[C@H](O[C@@H]6O[C@H](C(=O)O)[C@@H](O)[C@H](O)[C@H]6O)C(C)(C)[C@@H]5CC[C@]43C)[C@@H]2C1 [Chikusetsusaponin Iva]
inhibition at 110 µM [1]: 5%
inhibition at 110 µM [2]: 14%

O=C(N[C@H](CO)[C@H](O)c1ccc([N+](=O)[O-])cc1)C(Cl)Cl [Chloramphenicol]
inhibition at 110 µM [1]: 6%
inhibition at 110 µM [2]: 2%

[H]/N=C(\N/C(=N/[H])NCCCCCCNC(=N)NC(=N)Nc1ccc(Cl)cc1)Nc1ccc(Cl)cc1 [Chlorhexidine]
inhibition at 110 µM [1]: 38%
inhibition at 110 µM [2]: 63%

Oc1c(Cl)cc(Cl)c2cccnc12 [Chloroxine]
inhibition at 110 µM [1]: 43%
inhibition at 110 µM [2]: 34%

Cc1ccc2c(Cl)cc(Cl)c(O)c2n1 [Chlorquinaldol]
inhibition at 110 µM [1]: 19%
inhibition at 110 µM [2]: 38%

CC(C)CCC[C@@H](C)[C@H]1CC[C@H]2[C@@H]3CC=C4C[C@@H](O)CC[C@]4(C)[C@H]3CC[C@]12C [Cholesterol]
inhibition at 110 µM [1]: 24%
inhibition at 110 µM [2]: 17%

C[C@H](CCC(=O)O)[C@H]1CC[C@H]2[C@@H]3[C@H](O)C[C@@H]4C[C@H](O)CC[C@]4(C)[C@H]3C[C@H](O)[C@]12C [Cholic acid]
inhibition at 110 µM [3]: 0%
inhibition at 110 µM [4]: 8%

O=c1cc(-c2ccccc2)oc2cc(O)cc(O)c12 [Chrysin]
inhibition at 110 µM [1]: 15%
inhibition at 110 µM [2]: 0%

COc1cc(-c2cc(=O)c3c(O)cc(O)cc3o2)ccc1O [Chrysoeriol]
inhibition at 110 µM [1]: 18%
inhibition at 110 µM [2]: 1%

Cc1cc(C2CCCCC2)n(O)c(=O)c1 [Ciclopirox]
inhibition at 110 µM [1]: 42%
inhibition at 110 µM [2]: 41%

Nc1ccn(C[C@@H](CO)OCP(=O)(O)O)c(=O)n1 [Cidofovir]
inhibition at 110 µM [1]: 15%
inhibition at 110 µM [2]: 3%

C=C[C@H]1CN2CC[C@H]1C[C@H]2[C@H](O)c1ccnc2ccccc12 [Cinchonidine]
inhibition at 110 µM [1]: 0%
inhibition at 110 µM [2]: 0%

C=C[C@H]1C[N@@]2CC[C@H]1C[C@@H]2[C@@H](O)c1ccnc2ccccc12 [Cinchonine]
inhibition at 110 µM [1]: 6%
inhibition at 110 µM [2]: 0%

O=C(O)c1cn(C2CC2)c2cc(N3CCNCC3)c(F)cc2c1=O [Ciprofloxacin]
inhibition at 110 µM [1]: 33%
inhibition at 110 µM [2]: 2%

C[N+](C)(C)CCOP(=O)(O)OP(=O)([O-])OC[C@H]1O[C@@H](n2ccc(N)nc2=O)[C@H](O)[C@@H]1O [Citicoline]
inhibition at 110 µM [1]: 0%
inhibition at 110 µM [2]: 0%

O=C(O)CC(O)(CC(=O)O)C(=O)O [Citric acid]
inhibition at 110 µM [1]: 0%
inhibition at 110 µM [2]: 18%

CC(C)=CCCC(C)CCO (stereo not shown) [Citronellol]
inhibition at 110 µM [1]: 15%
inhibition at 110 µM [2]: 28%

CC[C@H]1OC(=O)[C@H](C)[C@@H](O[C@H]2C[C@@](C)(OC)[C@@H](O)[C@H](C)O2)[C@H](C)[C@@H](O[C@@H]2O[C@H](C)C[C@H](N(C)C)[C@H]2O)[C@](C)(OC)C[C@@H](C)C(=O)[C@H](C)[C@@H](O)[C@]1(C)O [Clarithromycin]
inhibition at 110 µM [1]: 12%
inhibition at 110 µM [2]: 10%

Cc1cn([C@H]2O[C@@H](CO)[C@H](O)[C@H]2F)c(=O)[nH]c1=O [Clevudine]
inhibition at 110 µM [1]: 2%
inhibition at 110 µM [2]: 0%

CC(C)(C)C(=O)C(Oc1ccc(Cl)cc1)n1ccnc1 (stereo not shown) [Climbazole]
inhibition at 110 µM [1]: 53%
inhibition at 110 µM [2]: 2%

Oc1c(I)cc(Cl)c2cccnc12 [Clioquinol]
inhibition at 110 µM [1]: 23%
inhibition at 110 µM [2]: 0%

CC(C)/N=c1\cc2n(-c3ccc(Cl)cc3)c3ccccc3nc-2cc1Nc1ccc(Cl)cc1 [Clofazimine]
inhibition at 110 µM [1]: 6%
inhibition at 110 µM [2]: 7%
